Measured values: patent US20220024963A1, “SALT OF TRIPHOSPHATE PHOSPHORAMIDATES OF NUCLEOTIDES AS ANTICANCER COMPOUNDS” (priority 2019, published 2022)
Structures can show the parent of a compound that is named as a salt.

Columns and labels:
CCRF-CEM = experiment: In vitro viability assay, CellTiterGlo, 72 h (Example A); type: cell-based
Experimental: (§1) A compound of the invention was assayed for cytotoxic activity in an array of different solid tumours and haematological malignancies using the following assay.
(§2) In vitro viability assay was performed to assess the effects of compounds on cell viability in selected cell lines over 72 h using the CellTiterGlo (CTG, Promega-G7573) assay. The tests were performed in duplicates with treatment of compounds at 9 points, 3.16 folds titration in 96 well plates over ˜72 h. The compound starting concentrations were 198 μM. Cell viability assay using CellTiterGlo in 96-well plate were performed. Compound treatment 72 h, standard growth conditions, duplicates. Compounds were dissolved to 40 mM with thawed […]. Compounds were serially diluted at 3.16 fold in thawed DMSO and warmed to 37° C. before being dissolved in media (2 μL+200 μL). After compounds were dissolved in media, media containing compounds were warmed to 37° C. in incubator and then compounds in media were added to cell plates (50 μL+50 μL) in duplicates. The compounds' final concentrations were from 198 μM to 19.8 nM. All compound solubilities were checked and recorded again, then the plates were transferred to CO2 tissue culture incubator immediately and incubated for 3 days. DMSO final concentration is 0.5%.

HL-60 = experiment: as above; type: cell-based; conditions: HL-60, CellTiterGlo
Experimental: as §1, §2

HT29 = experiment: as above; type: cell-based
Experimental: as §1, §2

HepG2 = experiment: as above; type: cell-based
Experimental: as §1, §2

K562 = experiment: as above; type: cell-based
Experimental: as §1, §2

KG-1 = experiment: as above; type: cell-based; conditions: KG-1, CellTiterGlo
Experimental: as §1, §2

MCF-7 = experiment: as above; type: cell-based
Experimental: as §1, §2

MOLT-4 = experiment: as above; type: cell-based; conditions: MOLT-4, CellTiterGlo
Experimental: as §1, §2

RL = experiment: as above; type: cell-based
Experimental: as §1, §2

RPMI-8226 = experiment: as above; type: cell-based, Human; conditions: RPMI-8226, CellTiterGlo
Experimental: as §1, §2

CCRF-CEM (ALL) = experiment: cells; type: cell-based
Excerpt: (§3) The efficacy (evaluated by IC50) of clofarabine and 3 different compounds representing different class of clofarabine ProTides (monophosphate, diphosphate and triphosphate molecules) was compared.
(§4) The tested cancer cell lines were acute lymphoblastic leukaemia (ALL), acute myeloid leukaemia (AML) and lymphoma: CCRF-CEM (ALL), HL60 (AML), KG1 (AML), OCI-AML3 (AML) and RL (lymphoma), grown in suspension, in RPMI-1640 media, supplemented with 10% FBS serum and 1% pen strep, except for KG1 cell line for which FBS was 20%.
(§5) For all experiments, cells were plated on a 96 well plate, at a density of 10,000 cells/well in 50 μL media. Dilutions from stock concentration to working solutions were prepared in media; at twice the required concentration and 50 μL was added per well (this achieving the final concentrations described in results below). Control untreated received 50 μL of plain media. After 66 h 10 μL of resazurin was added per well (dilution 1:10). Cells were then incubated with for up to 6 h. After 72 h treatment, cytotoxicity assay (AlamarBlue™−resazurin dye) was performed to determine cell survival. Plates were scanned with a BioHit800 plate reader and data were analysed with Excel and GraphPad Prism.
(§6) A low IC50 indicates greater potency under these laboratory conditions.
(§7) Clofarabine, A, 5a, 5b, 5c, 5d, 5e and 5f were tested against CCRF-CEM and OCI-AML3 cells. Data is represented as the percentage ofcell survival for each ofthe different concentrations to which cells were exposed, rather than calculating a formal IC50 from only two or three datapoints.

OCI-AML3 (AML) = experiment: cells; type: cell-based
Excerpt: as §3, §4, §5, §6, §7

HL60 (AML) = experiment: Cytotoxicity assay (AlamarBlue - resazurin dye), 72 h (Example B); type: cell-based; conditions: Homo sapiens, HL-60, HL60, 72 h treatment
Excerpt: as §3, §4, §5, §6

KG1 (AML) = experiment: as above; type: cell-based; conditions: KG1, 72 h treatment
Excerpt: as §3, §4, §5, §6

RL (lymphoma) = experiment: as above; type: cell-based; conditions: 72 h treatment
Excerpt: as §3, §4, §5, §6

[1] = Homo sapiens, read-out: Ab EC50

C[C@H](NP(=O)(Oc1ccccc1)OP(=O)(O)OP(=O)(O)OC[C@H]1O[C@@H](n2cnc3c(N)nc(Cl)nc32)C(F)[C@H]1O)C(=O)OCc1ccccc1 (stereo partly drawn) [Compound 5a, (2S)-Benzyl 2-(((((((((2R,3R,4S,5R)-5-(6-amino-2-chloro-9H-purin-9-yl)-4-fluoro-3-hydroxytetrahydrofuran-2-yl)methoxy)(hydroxy)phosphoryl)oxy) (hydroxy)phosphoryl)oxy)(phenoxy)phosphoryl)amino)propanoate, di-triethylammonium salt]
Top Inhibit (CCRF-CEM): 99% | EC50 (CCRF-CEM; [1]): < 20 nM | Top Inhibit (HL-60): 97% | EC50 (HL-60; [1]): 330 nM | Top Inhibit (HT29): 64% | EC50 (HT29; Homo sapiens, HT-29, read-out: Ab EC50): 500 nM | Top Inhibit (HepG2): 51% | EC50 (HepG2; [1]): 620 nM | Top Inhibit (K562): 33% | EC50 (K562; [1]): > 198000 nM | EC50 (KG-1; [1]): 310 nM | Top Inhibit (KG-1): 92% | EC50 (MCF-7; Homo sapiens, MCF7, MCF-7, CellTiterGlo, read-out: Ab EC50): > 198000 nM | Top Inhibit (MCF-7; MCF-7, CellTiterGlo): 40% | EC50 (MOLT-4; [1]): 40 nM | Top Inhibit (MOLT-4): 86% | Top Inhibit (RL): 57% | EC50 (RL; [1]): 44600 nM | EC50 (RPMI-8226; [1]): 20200 nM | Top Inhibit (RPMI-8226): 94% | Survival @ 25 nM (CCRF-CEM (ALL); 25 nM, percentage of cell survival, 72 h): 81% | Survival @ 50 nM (CCRF-CEM (ALL); 50 nM, percentage of cell survival, 72 h): 100% | Survival @ 125 nM (CCRF-CEM (ALL); 125 nM, percentage of cell survival, 72 h): 13% | IC50 (CCRF-CEM (ALL); Homo sapiens, 72 h treatment, AlamarBlue): 79 nM | IC50 (OCI-AML3 (AML); Homo sapiens, OCI-AML-3, OCI-AML3, 72 h treatment, AlamarBlue): 114 nM | Survival @ 50 nM (OCI-AML3 (AML); OCI-AML3, 50 nM, percentage of cell survival, 72 h): 86% | Survival @ 125 nM (OCI-AML3 (AML); OCI-AML3, 125 nM, percentage of cell survival, 72 h): 51% | IC50 (HL60 (AML)): 56.2 nM | IC50 (KG1 (AML)): 349 nM | IC50 (RL (lymphoma)): 117 nM
